Values of other authors as cited in patent publication US20140011742A1, “Bioactive Peptides and Proteins Containing Bioactive Peptides, their Uses and Processes for Making the Same” (MCGILL UNIVERSITY, priority 2010, published 2014).

Conditions: compared with β-Lg hydrolysates; as previously reported

For O=C1O[C@H]([C@@H](O)CO)C(O)=C1O [Vitamin C], the radical scavenging activity is listed as “comparable radical scavenging activity”.
